Assay results taken from patent US12496303B2, “Conditioning agents for use in allogeneic hematopoietic stem cell transplantation” (priority 2020, dated 2025).

Experiments:
[1] = MHC-mismatched haploidentical allo-HSCT (CB6F1→B6); assay type: in vivo, mouse
Experimental: (§1) To investigate the efficacy of ADCs for allo-HSCT conditioning, two transplant models were used (see e.g., FIG. 2A): a miHA-mismatched BALB/c-Ly5.1→DBA/2 model and a haploidentical CB6F1→B6 (F1-to-parent) model MHC-mismatched for H-2d in the host-versus-graft direction. CD45-SAP was chosen for conditioning in these studies to leverage its lymphodepleting activity to overcome graft rejection.
(§2) Mice were injected with CD45-SAP or cKit-SAP at doses indicated in each figure at 7 days pre-transplant (d-7). In general, 3 mg/kg (75 μg) CD45-SAP, and 0.4 mg/kg or 2 mg/kg (10 or 50 μg, respectively) cKit-SAP were used. On transplant day (d0), mice received 10×10^6 whole donor bone marrow cells via the retroorbital injection.
(§3) CD4^+ and CD8^+ T cell depletion was done using clones GK1.5 and YTS169.4, respectively, and NK cell depletion done using clone PK136. […] All antibodies were administered intraperitoneally at 250 μg per dose following the schema for each experiment.
(§4) Immediately prior to injection, these DMSO stocks were thawed, diluted 1:10 in PBS, and injected at 200 μl/mouse subcutaneously (400 μg daily dose).
ALZET subcutaneous osmotic pumps (Model 2004) were used to continuously deliver JAK1/2 inhibitors to mice for 28 days at a rate of 0.25 μL/hour (6 μL/day). A vehicle of 50% dimethyl sulfoxide (DMSO)/50% polyethylene glycol 400 (PEG-400) was used for all experiments. JAK1/2 inhibitors were prepared at 2× concentration (133.3 mg/mL) in 100% DMSO then diluted to 1× with an equal volume of PEG-400 (66.7 mg/mL, 400 μg total daily dose). Prepared compounds were then loaded into osmotic pumps per the manufacturer's instructions and surgically implanted in accordance with our IACUC-approved protocol.

[2] = tested on: IL-15-stimulated B6 splenic NK cells; assay: functional assays of cytokine-stimulated splenic NK cells; assay type: cell-based, mouse
Experimental: FIG. 5A-FIG. 5H. […] Data points and error bars represent mean±SEM.
Cytokine concentrations in culture supernatant or mouse plasma were measured with the LegendPLEX Inflammation Panel (13-plex) or the Mouse Th1 Panel (5-plex) per the manufacturer protocols (BioLegend). Quantification was done using LegendPLEX software v8.0 for Windows. If a cytokine concentration was too low to be quantified, the sample was assigned the value of the lower limit of quantitation. For intracellular IFNγ analysis of splenic NK cells, cells were cultured in K10 media with or without cytokine stimulation for 15 hours, with 5 μg/mL Brefeldin A (BioLegend) added to each well for the last 2.5 hours. After this incubation period, cells were fixed, saponin-permeabilized, and stained as described above.

[3] = tested on: αCD3-stimulated B6 T cells; assay: αCD3-stimulated CFSE-labeled T cell culture; assay type: cell-based, mouse; conditions: 72 hours, highest tested dose
Experimental: FIG. 4A-FIG. 4E. […] (B) Donor chimerism in spleen and bone marrow of mice from panel (A). […] (D) Proliferation and viability of cultures in (C). (E) Cytokines present in supernatants collected from cultures described in (C) after 24 hours incubation. For (C-E), data from three technical replicates are shown from one representative of four experiments. For all panels, data points and error bars represent mean±SEM.
For ex vivo stimulation of primary mouse T cells, 1×10^5 T cells purified from spleen and lymph nodes with the EasySep Mouse T cell Isolation Kit (Stem Cell Technologies; Vancouver, BC, Canada) were cultured with 4×10^5 T-depleted splenocytes in 96-well round bottom plates in R10 media with 1 μg/mL αCD3. Supernatants were collected for cytokine analysis after 24 hours incubation, and cultured cells were analyzed for expansion by flow cytometry at 72 hours.
Cytokine concentrations in culture supernatant or mouse plasma were measured with the LegendPLEX Inflammation Panel (13-plex) or the Mouse Th1 Panel (5-plex) per the manufacturer protocols (BioLegend). Quantification was done using LegendPLEX software v8.0 for Windows. If a cytokine concentration was too low to be quantified, the sample was assigned the value of the lower limit of quantitation. […]

[4] = minor- and major-mismatched alloHSCT models, summary statements; assay type: in vivo, mouse
From the text: This example describes the combination of JAK1/JAK2 (JAK1/2) inhibitors and CD45-ADC.

[5] = miHA-mismatched allo-HSCT (BALB/c-Ly5.1→DBA/2); assay type: in vivo, mouse; conditions: CD45-SAP conditioning plus daily baricitinib
Experimental: as §1, §2, §3, §4

[6] = solubility testing of baricitinib in osmotic pump vehicles; assay type: physicochemical
[7] = tested on: NK cell-mediated rejection; assay: parent-to-F1 allo-HSCT (B6→CB6F1), NK cell-mediated rejection; assay type: in vivo, mouse; conditions: CD45-SAP plus baricitinib
Experimental: as §2, §3, §4

[8] = acute effects of four days daily baricitinib on blood and lymphoid organs; assay type: in vivo, B6 mice
From the text: FIG. 16A-FIG. 16G. […] The color scheme in the legend (upper-right) is used throughout the figure. (A and B) Complete blood counts (A) and organ cellularity of spleen and bone marrow (B). (C) Proportions of HSPC subsets in bone marrow. (D) Absolute B, T, and myeloid (Gr1+ and/or CD11b+) cell counts in spleen, blood, and bone marrow. (E) Frequencies of FoxP3+ Tregs (relative to total CD4+ T cells) in spleen, blood and bone marrow. (F and G) Cell surface phenotyping of splenic T cells (F) and APCs (G). Data points and error bars represent mean±SEM, with mice pooled across 3 experiments. For statistical comparison: ns=not significant, * is p<0.05, ** is p<0.01, *** is p<0.001, and **** is p<0.0001.
as §4

[9] = fully MHC-mismatched allo-HSCT (BALB/c→B6), preliminary; assay type: in vivo, mouse; conditions: continuous baricitinib plus CD45-SAP conditioning, preliminary (not shown)
From the text: Continued optimization of our conditioning regimens aims to achieve robust, high-level engraftment in fully haploidentical (F1-to-F1) and fully MHC-mismatched allo-HSCT.

[10] = CD45-ADC single dose d-7 plus baricitinib for 3-4 weeks

CCS(=O)(=O)N1CC(CC#N)(n2cc(-c3ncnc4[nH]ccc34)cn2)C1 [baricitinib]
overall donor chimerism ([1]; CD45-SAP plus continuously-infused baricitinib (osmotic pump, 400 μg daily)): > 80% | overall donor chimerism ([1]; CD45-SAP, daily baricitinib and pre-transplant pan-TCD): > 90% | engraftment rate ([1]; continuous baricitinib plus CD45-SAP): ~70% | nonspecific toxicity in unstimulated NK cultures [2]: modest and noted only at the highest baricitinib doses | cell death in unstimulated cultures [3]: only subtly increased | donor chimerism [4, 10]: up to 90% | share of treated mice achieving the donor chimerism [4, 10]: at least 70 % of the mice | donor chimerism, multilineage alloengraftment ([4]; CD45-targeted ADCs combined with baricitinib): 80-90% | overall multilineage donor chimerism of engrafted mice [5]: ~80% | solubility ([6]; DMSO mixed 1:1 with PEG-400): readily soluble | solubility after incubation ([6]; DMSO/PEG-400 vehicle, 30-day incubation at 37° C.): remained soluble | overall donor chimerism [7]: ~60% | immunophenotyping of splenic T cell and APC compartments ([8]; baricitinib- vs vehicle-treated): no differences | B cells in spleens ([8]; daily baricitinib 4 days): lower frequencies of B cells | CBCs or bone marrow cellularity ([8]; daily baricitinib 4 days): minimally affected | bone marrow HSPC numbers ([8]; daily baricitinib 4 days): largely unaffected | spleen cellularity ([8]; daily baricitinib 4 days): significant reduction | frequencies of long-term HSC and megakaryocyte-erythroid progenitors ([8]; daily baricitinib 4 days, bone marrow): somewhat lower frequencies | engraftment success [9]: ~25%
